Results as given in patent US6596500B1, “Binding of retinoids to M6P/IGF-II receptor” (The General Hospital Corporation, priority 1998, dated 2003).

What was measured:
P388D1 cells [1] = assay: RA effects on endocytosis, IGF-II internalization and acid phosphatase in receptor-negative cells; format: cell-based, mouse
Excerpt: (§1) The primary functions of the Man-6-P/IGF-II receptor are to mediate endocytosis of extracellular M6P-containing proteins (e.g. lysosomal enzymes) and IGF-II and to sort newly synthesized lysosomal enzymes. Therefore, an important question raised by the direct interaction of RA with M6P/IGF2R is whether RA influences these functions of the receptor. To answer this question, we examined the effect of RA on endocytosis of exogenous β-glucuronidase and ^125I-IGF-II and intracellular activity of acid phosphatase in cultured neonatal rat cardiac myocytes, which were known to express high levels of the M6P/IGF-II receptor (Nissley et al., 1993, Mol. Reprod. Dev. 35:408-413). […] This indicated an increased sorting of lysosomal enzymes) (FIGS. 4-6). […] These effects of RA were not altered in the presence of a protein synthesis inhibitor (0.5 mM cycloheximide) and were not observed in the receptor-negative P388D1 cells. This indicated a direct interaction of RA with the M6P/IGF2R protein.

M6P/IGF-II receptor [2] = target: T1, M6P/IGF-II receptor (Rattus norvegicus, UniProt G3V824); assay: Internalization of 125I-IGF-II in cultured cardiac myocytes; format: cell-based; conditions: RA 2 μM; 2 h
T1 construct: cultured neonatal rat cardiac myocytes, which were known to express high levels of the M6P/IGF-II receptor; endogenous in cells; host or cells: primary neonatal rat cardiac myocytes
T1 sequence (G3V824 36-2481): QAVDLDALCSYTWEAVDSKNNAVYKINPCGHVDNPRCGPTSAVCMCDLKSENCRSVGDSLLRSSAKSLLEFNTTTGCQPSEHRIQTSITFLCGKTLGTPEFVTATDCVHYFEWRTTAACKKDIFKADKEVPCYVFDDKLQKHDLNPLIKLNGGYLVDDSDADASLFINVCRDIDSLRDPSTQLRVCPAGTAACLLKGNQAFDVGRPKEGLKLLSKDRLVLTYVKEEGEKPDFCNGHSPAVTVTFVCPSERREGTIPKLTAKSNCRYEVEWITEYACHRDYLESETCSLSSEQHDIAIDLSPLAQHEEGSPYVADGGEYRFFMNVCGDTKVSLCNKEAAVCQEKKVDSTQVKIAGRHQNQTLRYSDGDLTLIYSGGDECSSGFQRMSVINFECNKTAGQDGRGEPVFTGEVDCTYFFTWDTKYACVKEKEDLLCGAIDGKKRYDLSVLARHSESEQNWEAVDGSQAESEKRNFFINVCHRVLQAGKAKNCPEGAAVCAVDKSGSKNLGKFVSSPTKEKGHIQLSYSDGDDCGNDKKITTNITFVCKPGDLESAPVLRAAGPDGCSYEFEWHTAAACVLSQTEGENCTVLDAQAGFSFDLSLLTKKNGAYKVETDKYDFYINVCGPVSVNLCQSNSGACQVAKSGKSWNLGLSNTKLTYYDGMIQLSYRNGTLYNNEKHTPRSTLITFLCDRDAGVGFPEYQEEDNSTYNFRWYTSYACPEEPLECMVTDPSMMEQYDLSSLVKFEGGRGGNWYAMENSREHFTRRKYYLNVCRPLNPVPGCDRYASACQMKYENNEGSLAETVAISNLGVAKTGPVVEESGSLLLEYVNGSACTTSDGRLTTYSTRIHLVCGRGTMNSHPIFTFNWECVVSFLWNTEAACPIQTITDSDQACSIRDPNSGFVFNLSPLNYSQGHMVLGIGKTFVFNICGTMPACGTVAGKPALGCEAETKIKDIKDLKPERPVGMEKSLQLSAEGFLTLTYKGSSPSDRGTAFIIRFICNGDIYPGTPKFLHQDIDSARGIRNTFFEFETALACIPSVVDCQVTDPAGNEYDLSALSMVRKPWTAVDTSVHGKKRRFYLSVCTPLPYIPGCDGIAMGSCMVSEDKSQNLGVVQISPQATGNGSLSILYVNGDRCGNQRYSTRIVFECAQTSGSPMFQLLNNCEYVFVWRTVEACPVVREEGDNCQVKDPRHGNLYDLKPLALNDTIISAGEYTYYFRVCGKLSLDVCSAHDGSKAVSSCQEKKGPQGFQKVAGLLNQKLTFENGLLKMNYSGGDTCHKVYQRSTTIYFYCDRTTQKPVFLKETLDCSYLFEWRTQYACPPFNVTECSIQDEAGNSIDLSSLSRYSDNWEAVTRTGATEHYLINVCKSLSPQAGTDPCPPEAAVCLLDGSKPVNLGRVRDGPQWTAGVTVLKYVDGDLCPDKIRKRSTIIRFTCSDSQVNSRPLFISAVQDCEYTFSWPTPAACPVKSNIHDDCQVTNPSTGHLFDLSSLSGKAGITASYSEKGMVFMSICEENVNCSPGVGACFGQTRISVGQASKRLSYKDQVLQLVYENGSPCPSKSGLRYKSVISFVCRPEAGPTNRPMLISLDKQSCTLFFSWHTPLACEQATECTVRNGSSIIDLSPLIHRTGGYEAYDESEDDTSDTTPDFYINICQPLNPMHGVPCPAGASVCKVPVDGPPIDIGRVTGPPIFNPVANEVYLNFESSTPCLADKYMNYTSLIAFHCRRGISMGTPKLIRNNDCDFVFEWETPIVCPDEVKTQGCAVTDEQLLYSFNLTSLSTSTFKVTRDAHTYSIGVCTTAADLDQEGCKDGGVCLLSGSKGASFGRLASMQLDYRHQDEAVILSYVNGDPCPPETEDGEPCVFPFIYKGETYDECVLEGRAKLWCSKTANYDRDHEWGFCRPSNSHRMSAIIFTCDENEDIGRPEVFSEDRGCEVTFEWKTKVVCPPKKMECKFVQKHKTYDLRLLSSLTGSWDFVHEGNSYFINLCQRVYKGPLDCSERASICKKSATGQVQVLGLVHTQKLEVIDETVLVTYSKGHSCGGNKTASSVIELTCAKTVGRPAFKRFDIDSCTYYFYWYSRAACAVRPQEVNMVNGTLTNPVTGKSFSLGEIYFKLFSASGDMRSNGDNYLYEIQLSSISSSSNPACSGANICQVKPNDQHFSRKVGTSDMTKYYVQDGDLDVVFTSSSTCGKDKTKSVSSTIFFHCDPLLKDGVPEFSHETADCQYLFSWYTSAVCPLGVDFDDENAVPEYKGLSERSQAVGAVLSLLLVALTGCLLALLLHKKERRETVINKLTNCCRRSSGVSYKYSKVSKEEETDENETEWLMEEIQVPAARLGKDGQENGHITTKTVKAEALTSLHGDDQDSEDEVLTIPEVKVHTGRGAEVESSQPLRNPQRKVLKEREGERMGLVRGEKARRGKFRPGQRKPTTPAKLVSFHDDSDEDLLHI
Description: FIG. 5 is a histogram summarizing data on the effect of RA on the internalization of ^125I-IGF-II. Assay was performed by incubating cells at […] for 2 h in media (150 mM NaCl, 5 mM KCl, 1.2 mM MgSO4, 8 mM glucose, 100 mM Hepes, pH 7.6) or F-10 culture medium containing ^125I-IGF-II (0.5 ng/ml) with or without excess unlabeled IGF-II (2 μg/ml), in the presence or absence of 2 μM RA. Following the incubation, the cells were washed three times with ice-cold PBS, and cell-associated radioactivity was determined by a gamma counter.
(§2) The primary functions of the Man-6-P/IGF-II receptor are to mediate endocytosis of extracellular M6P-containing proteins (e.g. lysosomal enzymes) and IGF-II and to sort newly synthesized lysosomal enzymes. Therefore, an important question raised by the direct interaction of RA with M6P/IGF2R is whether RA influences these functions of the receptor. To answer this question, we examined the effect of RA on endocytosis of exogenous β-glucuronidase and ^125I-IGF-II and intracellular activity of acid phosphatase in cultured neonatal rat cardiac myocytes, which were known to express high levels of the M6P/IGF-II receptor (Nissley et al., 1993, Mol. Reprod. Dev. 35:408-413). […] This indicated an increased sorting of lysosomal enzymes) (FIGS. 4-6). […]

P388D1 cells [3] = assay: Cathepsin B distribution in P388D1 cells lacking or overexpressing M6P/IGF2R; format: cell-based, mouse
Description: Intracellular Trafficking Materials Retinoic acid was obtained from Sigma Chem. Co. (St. Louis, Mo.). The synthetic retinoids used (AGN193109, TTNPB) were produced by Allergan Inc. (Irvine, Calif.). Stably-transfected P388D1 cells re-expressing the M6P/IGF2R were provided by Dr. William S. Sly (St. Louis University). The rabbit polyclonal antibody against the rat M6P/IGF-II receptor was a gift from Dr. R.G. MacDonald (University of Nebraska). The rabbit polyclonal anti-rat cathepsin B antibody was purchased from Upstate Biotechnology (N.Y.). The FITC-conjugated goat anti-rabbit IgG was obtained from Jackson ImmunoResearch Laboratories (West Grove, Pa.). Neonatal rat cardiac fibroblasts were prepared from 1-day-old rats using the Neonatal Cardiomyocyte Isolation System (Worthington) and grown on glass coverslips in F-10 nutrient mixture with 10% horse serum and 5% fetal bovine serum (FBS). Cells were used in experiments after 3-5 days of culture. Mouse macrophage P3,88D1 cells were cultured in minimum essential medium-a (MEM-α) supplemented with 10% FBS.
Cells were then fixed with 4% paraformaldehyde in phosphate-buffered saline (PBS) for 30 min. The cells were washed in PBS, permeabilized with 0.1% Triton X-100 in PBS for 5 min, and then incubated with either polyclonal anti-rat M6P/IGF2R antibody or anti-rat cathepsin B antibody (diluted 1:200) at room temperature for 1 h. […]

M6P/IGF-II receptor [4] = target: T1, M6P/IGF-II receptor; assay: Endocytosis of exogenous β-glucuronidase in cultured cardiac myocytes; format: cell-based
Description: FIG. 4 is a histogram summarizing data on the effect of RA on the endocytosis of exogenous β-glucuronidase. Myocytes were incubated for 2 h at 37°0 C. with 1 ml of MEM containing 10,000 units of human β-glucuronidase, and with or without 5 mM mannose 6-phosphate, in the presence or absence of 2 μM RA. Following the incubation, the internalized human β-glucuronidase was determined as described in the Methods.
as §2
Endocytosis of extracellular β-glucuronidase was determined as described by Kyle et al., 1988, J. Biol. Chem. 263:16230-16235. […]

M6P/IGF2R = M6P/IGF2R (Rattus norvegicus, UniProt G3V824); assay: β-glucuronidase binding to saponin-permeabilized cardiac myocytes; format: cell-based; set-up: endogenous in cells; host or cells: primary neonatal rat cardiac fibroblasts; conditions: RA 1 μM; saponin-permeabilized neonatal rat cardiac myocytes
Sequence of M6P/IGF2R (G3V824 36-2481): as above
Description: FIG. 3 is a histogram summarizing data on the effect of RA (1 μM) on β-glucuronidase binding to permeabilized neonatal rat cardiac myocytes (n=3).
To determine how these ligands interact in binding to the same receptor, we examined the effects of M6P and IGF-II on the [^3H]RA-affinity photolabeling of the M6P/IGF-II receptor. […] The [^3H]RA labeling of M6P/IGF-II receptor was 2-fold greater in the presence of 5 mM M6P than in the absence of M6P, as measured by NIH Image, n=3. Similar results were obtained by measurement of the binding of [^3H]RA to the partially purified receptors (FIG. 2). The increased binding of RA to the receptor in the presence of M6P appeared to be the result of increased binding affinity. […]
β-glucuronidase Binding and Endocytosis For binding assays, cells were permeabilized with saponin, incubated with β-glucuronidase (20,000 units/ml) with or without 1 μM RA for 3 h on ice, washed, solubilized and assayed for β-glucuronidase essentially as described by Miniti et al., 1992, J. Biol. Chem. 267:9000-9004. Specific enzyme binding was calculated by subtracting nonspecific binding (in the presence of 10 mM M6P) from total binding.

[5] = system: neonatal rat cardiac myocytes; assay: Cellular acid phosphatase activity in cultured cardiac myocytes; format: cell-based; conditions: RA 2 μM; various times
Description: FIG. 6. is a graph summarizing data on the effect of RA on cellular acid phosphatase activity. Cultured neonatal rat cardiac myocytes were treated with 2 μM RA at 37° C. for various time, washed and harvested. Cellular proteins were then solubilized by sonication and acid phosphatase activity was assayed using a Diagnostics Acid Phosphatase kit (Sigma). Dotted line represents control cells. Solid line represents RA-treated cells. Bars represent standard error or the mean (n=4).
as §1, with “This indicated a direct interaction of RA with the M6P/IGF2R protein.” left out

P388D1 cells [6] = assay: Morphology, growth and apoptosis of P388D1 cells overexpressing M6P/IGF2R; format: cell-based, mouse; conditions: for Cell morphology: 1 μM RA for 24 hours
Description: FIG. 10 is a graph showing the effect of RA treatment on growth rate of P388D1 cells overexpressing M6P/IGF2R protein and P388D1 controls. Open circles, vector control cells without RA treatment; closed circles, vector control cells with 1 μM RA treatment; open triangles, overexpressing cells without RA treatment; closed triangles overexpressing cells with 1 μM RA treatment.
We examined M6P/IGF2R-mediated effects of RA in mouse macrophage P388D1 cells, which are the best characterized cells that lack the M6P/IGF2R protein.

CC1=C(/C=C/C(C)=C/C=C/C(C)=C/C(=O)O)C(C)(C)CCC1 [RA, all-trans-retinoic acid]
Effects of RA on endocytosis, IGF-II internalization and acid phosphatase in receptor-negative cells (P388D1 cells [1]): not observed
Increase of internalization of IGF-II (M6P/IGF-II receptor [2]): 30-50%
RA-induced cathepsin B translocation (P388D1 cells [3]; M6P/IGF2R-deficient P388D1 cells): No significant effect
RA-induced cathepsin B translocation (P388D1 cells [3]; stably-transfected P388D1 cells overexpressing M6P/IGF2R): remarkable cathepsin B translocation
Effects of RA on endocytosis, IGF-II internalization and acid phosphatase with protein synthesis inhibitor (M6P/IGF-II receptor [4]; RA 2 μM plus 0.5 mM cycloheximide): not altered
M6P-inhibitable endocytosis of β-glucuronidase (M6P/IGF-II receptor [4]; RA 2 μM, 2 h at 37° C.): almost doubled
M6P-inhibitable binding of β-glucuronidase to cells, presence vs absence of RA (M6P/IGF2R): 2-3 times
Cellular acid phosphatase activity [5]: induced a transient cellular accumulation of acid phosphatase
Cell morphology (P388D1 cells [6]; P388D1 cells overexpressing M6P/IGF2R): remarkable changes in cell morphology
Cell morphology (P388D1 cells [6]; control P388D1 cells transformed with vector alone): no such changes
Cell growth (proliferation) (P388D1 cells [6]; 1 μM RA, P388D1 cells overexpressing M6P/IGF2R): grew much more slowly
Apoptotic cells (fluorescence staining of fragmented DNA) (P388D1 cells [6]; RA, overexpressing P388D1 cells vs controls): much higher number of apoptotic cells
